Results on one compound are retold here after US10494364B2, “Cathepsin K inhibitors and application thereof” (SUNSHINE LAKE PHARMA CO., LTD., priority 2015, dated 2019).

One data set deals with T1, human cathepsin K (Homo sapiens, UniProt P43235).
T1 sequence (P43235 115-329): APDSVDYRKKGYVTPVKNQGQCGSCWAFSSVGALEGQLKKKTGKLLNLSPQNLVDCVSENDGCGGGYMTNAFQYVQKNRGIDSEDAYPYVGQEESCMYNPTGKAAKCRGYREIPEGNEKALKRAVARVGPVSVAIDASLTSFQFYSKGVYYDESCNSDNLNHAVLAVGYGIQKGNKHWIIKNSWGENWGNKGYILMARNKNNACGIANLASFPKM
Briefly: Assay of cathepsin K inhibitory activity in vitro. Format: biochemical. Particulars: IC50 against human cathepsin K; substrate Z-Phe-Arg-AMC 10 μM; 25° C.; read-out: Cat-K. The procedure:
Assay Method of Cathepsin K Inhibitory Activity In Vitro
Using 45000-fold diluted cathepsin K solution and 10 μM Z-Phe-Arg-AMC as substrate, the test compound and cathepsin K solution were incubated at 25° C. for 15 min in a 15 μL reaction system according to the optimized experimental condition.

Another data set addresses human cathepsin B (Homo sapiens, UniProt P07858). The data set is described as follows: Assay of cathepsin B inhibitory activity in vitro. Type of data set: biochemical. Particulars: IC50 against human cathepsin B; substrate Z-Phe-Arg-AMC 10 μM; 25° C.; read-out: Cat-B. The method, then: Assay Method of Cathepsin B Inhibitory Activity In Vitro
0.01 ng/μL was the final concentration of Cathepsin B in the enzyme reaction, and Z-Phe-Arg-AMC with the final concentration of 10 μM was added into the reaction system as substrate, in the reaction system the test compound and enzyme had been incubated at 25° C. for 15 min.

Another data set has as its target human cathepsin L (Homo sapiens, UniProt P07711). Briefly: Assay of cathepsin L inhibitory activity in vitro. Format: biochemical. Particulars: IC50 against human cathepsin L; substrate Z-Phe-Arg-AMC 10 μM; 25° C.; read-out: Cat-L. The procedure:
Assay Method of Cathepsin L Inhibitory Activity In Vitro
0.01 ng/μL was the final concentration of Cathepsin L in the enzyme reaction, and Z-Phe-Arg-AMC with the final concentration of 10 μM was added into the reaction system as substrate, in the reaction system the test compound and enzyme had been incubated at 25° C. for 15 min.

Another data set has as its target human cathepsin S (Homo sapiens, UniProt P25774). The data set is described as follows: Assay of cathepsin S inhibitory activity in vitro. Format: biochemical. Particulars: IC50 against human cathepsin S; substrate Z-VVR-AMC 20 μM; 25° C.; read-out: Cat-S. The procedure:
Assay Method of Cathepsin S Inhibitory Activity In Vitro
0.25 ng/L was the final concentration of Cathepsin S in the enzyme reaction, and Z-VVR-AMC with the final concentration of 20 μM was added into the reaction system as substrate, in the reaction system the test compound and enzyme had been incubated at 25° C. for 15 min.

The nature of data set [1]: Pharmacokinetic test in SD rats (iv and oral gavage), plasma by LC/MS/MS. Format: in vivo. Particulars: rat, male SD rats; for AUC(0-inf): read-out: AUCINF h * ng/ml; for AUC(0-t): read-out: AUClast h * ng/ml; for half-life: read-out: T1/2 h (converted). The procedure: Healthy adult male SD rats were divided into groups with administration of compound by intravenous injection and oral gavage.
2. Preparation of the Test Compound Solution:
A certain amount of the test compound was weighed, and then mixed with 5% DMSO, 10% Kolliphor HS15 and 85% Saline to prepare a clarified solution.
3. Administration and Sample Collection:
All groups were fasted for 12 hours before administering, free drinking, and fed at 3 hours after administration. Each group was administered with test compound by vein intravenous (iv, 1 mg/kg) in the hind foot and oral gavage (po, 5 mg/kg) independently. The blood samples were collected from tail vein at the time point of 0 h, 0.083 h, 0.25 h, 0.5 h, 1 h, 2 h, 4 h, 6 h, 8 h and 24 h after administration and the amount of blood sample collected at each time point was about 200-400 μL. The blood samples collected at each time point were independently placed in K2EDTA anticoagulation tube and preserved in the incubator containing ice packs. The plasma of each blood sample above was separated by centrifugation at 4600 r/min at 4° C. for 5 min in 15 minutes after collecting. The plasma samples were preserved at −80° C. for measuring.
The content of the compound in plasma of rat after administration was determined by LC/MS/MS method.

Where two headings read alike, the source gives them in different places.

Chain of human cathepsin L (P07711 114-333): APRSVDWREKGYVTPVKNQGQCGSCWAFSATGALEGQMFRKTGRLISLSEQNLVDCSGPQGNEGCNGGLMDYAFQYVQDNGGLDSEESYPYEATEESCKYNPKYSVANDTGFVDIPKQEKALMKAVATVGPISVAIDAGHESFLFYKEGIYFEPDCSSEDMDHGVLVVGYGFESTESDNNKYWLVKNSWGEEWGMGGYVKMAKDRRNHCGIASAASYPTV
Chain of human cathepsin S (P25774 115-331): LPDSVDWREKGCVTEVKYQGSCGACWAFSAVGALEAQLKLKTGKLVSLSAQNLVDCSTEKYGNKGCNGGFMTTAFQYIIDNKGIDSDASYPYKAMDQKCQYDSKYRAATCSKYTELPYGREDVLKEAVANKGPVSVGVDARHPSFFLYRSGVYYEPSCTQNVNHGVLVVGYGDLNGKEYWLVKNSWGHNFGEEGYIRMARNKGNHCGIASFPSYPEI

Consider `CCOc1cc(-c2ccc3cc(C(=O)NC4(C(=O)NC5(C#N)CC5)CCC(F)(F)CC4)oc3c2)ccc1-n1cncn1` [Example 54, N-(1-((1-cyanocyclopropyl)carbamoyl)-4,4-difluorocyclohexyl)-6-(3-ethoxy-4-(1H-1,2,4-triazol-1-yl)phenyl)benzofuran-2-carboxamide], for which the IC50 on human cathepsin K was determined as 0.0013 µM. The IC50 on human cathepsin B was found to be 5 µM. Also, the IC50 on human cathepsin L is more than 10 µM. Further, on human cathepsin S, the IC50 was more than 10 µM. Besides, in data set [1] (iv 1 mg/kg), the Cmax amounted to 1240 ng/mL, the Tmax is 0.33 h, the clearance is 1.73 mL/min/kg and the AUC(0-inf) was determined as 9700 ng·h/mL. Besides, in data set [1] (iv 1 mg/kg), the AUC(0-t) stood at 9280 ng·h/mL and the half-life was 5.59 h. In addition, the Vd in data set [1] (iv 1 mg/kg, read-out: Vss) was 0.69 L/kg. In data set [1] (po 5 mg/kg), the Cmax worked out at 2260 ng/mL, the Tmax was determined as 3 h, the AUC(0-inf) was 22700 ng·h/mL and the AUC(0-t) stood at 21900 ng·h/mL. The half-life in data set [1] (po 5 mg/kg) was 5.06 h. In addition, the bioavailability in data set [1] (po 5 mg/kg vs iv 1 mg/kg) worked out at 46.9%.

As usually defined, the Cmax is the highest concentration seen after dosing. The Tmax is the time at which the peak concentration occurs. By bioavailability is commonly meant dose-corrected exposure relative to a reference, in per cent. Read a low bioavailability as poor availability.
